Experimental data published in patent publication US20110091375A1, “USE OF THE COMBINATION COMPRISING TEMOZOLOMIDE AND TNF-ALPHA FOR TREATING GLIOBLASTOMA” (THE UNIVERSITY OF CHICAGO, priority 2004, published 2011).

Tests used:
U87 hindlimb xenografts [1] = test: TNFα induction in vivo in hindlimb xenografts; design: species or system nude mice
Protocol: U87 cells (5×10^6) in […] were injected subcutaneously (sc) into the right hindlimb of nude mice. When tumors reached an average size of 200 mm^3 (length×width×thickness/2), the tumor-bearing mice were randomized into 4 groups: 1. Untreated Control (UTC); 2. Ad.Egr-TNF alone; 3. TMZ alone; 4. Ad.Egr-TNF and TMZ. Ad.Egr-TNF was injected intratumorally (IT) at a dose of 2×10^8 particle units (pu) each day. Two doses of TMZ were given: 2.5 mg/kg/day and 5 mg/kg/day by intraperitoneal (IP) injection 3 h after vector. Four consecutive daily IT and IP injections were given, control animals received IT and IP serum free medium (SFM). Animals were euthanized on day 2 and 4 (i.e., 48 h and 96 h after treatment initiation), tumors harvested, snap-frozen in liquid nitrogen and homogenized in RIPA buffer (150 mM NaCl, 10 mM Tris at pH 7.5, 5 mM EDTA at pH 7.5, […], 1 μg/mL leupeptin, and 2 μg/mL aprotinin). Protein was isolated and concentration measured using Protein Assay reagent (Bio-Rad Laboratories, Hercules, Calif.). TNFα levels in the supernatants were measured as described above.

U87 hindlimb xenografts [2] = test: Hindlimb glioma xenograft tumor growth; type: in vivo, nude mice; details: 30 days following treatment, second hindlimb study
Protocol: Hindlimb Studies: U87 hindlimb xenografts were established as described above in Example 4. In one study, mice were randomized into four groups as described in Example 4 and treatment initiated (day 0). Ad.Egr-TNF (2×10^8 pu) was injected IT twice a week for 4 total injections, and 5 mg/kg TMZ was given IP 3 h after each vector injection for a total of 20 mg/kg. The dose of TMZ used was approximately 0.2 LD10 and was chosen to have modest anti-tumor effect but to not be curative based on previous studies (Friedman, H. S. et al. (1995) Cancer Res 55(13):2853-2857) and data from our lab showing LD50 for IP TMZ to be approximately 500 mg/kg. Tumor volume was measured every 2-3 days. Fractional tumor volume (V/V0 where V0=volume on day 0) was calculated and plotted.
In a second study, tumor-bearing mice were randomized into eight treatment groups: untreated control (UTC); intratumoral (IT) Ad.Egr-TNF alone; intraperitoneal (IP) TMZ alone; IR alone; Ad.Egr-TNF and TMZ; Ad.Egr-TNF and IR; TMZ and IR; and Ad.Egr-TNF, TMZ and IR. Ad.Egr-TNF was administered IT at a dose of 2×10^8 pu/10 μL twice a week for 2 weeks, IP TMZ was given 3 h after vector at 5 mg/kg to a total of 20 mg/kg. […] Xenografts were measured twice a week using calipers, tumor volume was calculated, and fractional tumor volumes (V/V0 where V0=volume on day 0) were plotted.

U87 cells = test: Flow cytometric analysis of apoptosis (fractional DNA content, annexin V binding); type: cell-based, human; details: fractional DNA content, TMZ 100 μM
Protocol: Fractional DNA content: U87 cells (10^5) were plated overnight at 37° C. with 5% CO2. The cells were then treated with TNFα (10 ng/mL) and/or TMZ (100 μM). At 72 h the cells were washed in PBS and fixed in ice-cold 70% (v/v) ethanol. The cells were washed twice and incubated in RNase (1 mg/mL) for 30 m at 37° C., then incubated in propidium iodide (PI) solution (100 ug/mL) for […] at 4° C. Flow cytometric analysis was performed on a FACSort instrument (Becton Dickinson Immunocytometry Systems, San Jose, Calif.), and the data were analyzed using the CellQuest software (Becton Dickinson).
Annexin V binding (van Engeland, M. et al. (1998) Cytometry 31(1):1-9): At 72 h cells were washed in PBS and incubated in the dark for 15 m with binding buffer containing 5 μl of Annexin V-FITC and 5 μl of PI (Annexin V-FITC apoptosis detection kit II). The data was analyzed by Flowjo analysis software (Tree Star Inc., Ashland, Oreg.).
Cells were either un-transfected or co-transfected with pRC-CMV-p65 or pRC-CMV in the presence of a GFP plasmid at a ratio of 4:1. Under these conditions, cells expressing GFP also expressed the co-transfected plasmid (Tang, F. et al. (2002) Mol Cell Biol 22:8571-8579). Cells were then left untreated or treated as described in the figure legends. At 72 h cells were washed in PBS and incubated in the dark for 15 m with binding buffer containing 5 μl of Annexin V-FITC and 5 μl of Propidium iodide (PI). In transfected cells, annexin V binding was assessed in GFP positive cells. Data was analyzed by Flowjo analysis software (Tree Star Inc., Ashland, Oreg., USA) as described in U.S. Provisional Application No. 60/604,251 (Yamini, B. et al. (2004) Cancer Res 64:6381-6384).

[3] = test system: NF-κB in MIAPaCa-2 pancreatic cancer cells; test: NF-κB-responsive luciferase reporter assay, MIAPaCa-2; type: cell-based, human
[4] = test system: NF-κB in Seg-1 esophageal cancer cells; test: NF-κB-responsive luciferase reporter assay, Seg-1; type: cell-based, human
LD50 of IP TMZ = test: LD50 of IP TMZ; design: species or system mice; details: mouse, in vivo

Cn1nnc2c(C(N)=O)ncn2c1=O [TMZ, temozolomide]
TNF detection in vivo (U87 hindlimb xenografts [1]): No TNF was detected
animals with complete disappearance of palpable tumor (U87 hindlimb xenografts [2]): 1/10
cell cycle distribution (U87 cells): increase in the percentage of cells in G2/M phase
TNFα-induced NF-κB transcriptional activity [3]: activated
TNFα-induced NF-κB transcriptional activity [4]: activated
LD50 (LD50 of IP TMZ): ~500 mg/kg
